Results on one compound are retold here after article PMC8070745, “FEN1 Blockade for Platinum Chemo-Sensitization and Synthetic Lethality in Epithelial Ovarian Cancers” (Cancers, 2021).

What all share (assay type): cell-based, human
In experiment [1] the test system is PEO4 spheroids. The experiment in a line: 3D spheroid assay, PEO4. Conditions: FEN1i/cisplatin combination vs cisplatin or FEN1i monotherapy. As for the experimental part:
(§1) with ice cold PBS and fixed in 70% ethanol for 1h at -20°C. After removal of the fixative solution by centrifugation, cells were stained with 2 µg/ml of phospho-Histone (γH2AX) Ser139 (16202A, Millipore, UK) to detect DSBs.
Cell cycle progression: Cells were treated with 20 µg/ml RNase A (12091021, Invitrogen) and then 10 µg/ml Propidium Iodide (P4170, Sigma Aldrich) was added to determine the cell cycle distribution. The samples were analysed on a Beckman-Coulter FC500 flow cytometer using a 488nm laser for excitation and emission data for PI collected using a 620nm bandpass filter (FL3) and a 525nm bandpass filter (FL1) for FITC-anti-phospho-Histone H2A.X.
Apoptosis detection: Annexin V detection kit (556547, BD Biosciences) was used to quantify apoptotic cells. Briefly, cells were trypsinized, washed with PBS and the cellular pellet was re-suspended in Anexin Binding Buffer (1×). […] All the samples were analysed on a Beckman-Coulter FC500 flow cytometer. The percentage of apoptotic cells was determined (late apoptotic = FITC-Annexin V positive, PI positive early apoptotic = FITC-Annexin V positive, PI negative; live cells = FITC-Annexin V negative, PI negative) and compared for untreated and treated samples. […]
To quantify cell viability, LIVE/DEAD Viability/Cytotoxicity Kit (L3224, Thermo Fisher Scientific) was used. […] At least 10 spheroids were measured. […]

In experiment [2] the test system is A2780cis cells. The experiment in a line: γH2AX analysis, A2780cis. Conditions: FEN1i plus cisplatin. The method, then: (§2) Graphical representation and statistical analysis of mean tail moment was performed in GraphPad Prism 6 (GraphPad, La Jolla, USA). All experiments were done in duplicate three times.
(§3) γH2AX FACS: For monitoring DNA double strand break accumulation by γH2AX FACS, 1.05×104 Cells/cm2 were seeded in 6-well plates and left overnight at 37°C in a 5% CO 2 atmosphere. Cisplatin (5µM) or FEN1i (10µM) was later added to cells and incubated for 24h and 48h at 37°C in a 5% CO2 atmosphere. Cells were collected by trypsinization, washed […]
as §1
(§4) Cell cycle progression: Cells were treated with 20 µg/ml RNase A (12091021, Invitrogen) and then 10 µg/ml Propidium Iodide (P4170, Sigma Aldrich) was added to determine the cell cycle distribution. The samples were analysed on a Beckman-Coulter FC500 flow cytometer using a 488nm laser for excitation and emission data for PI collected using a 620nm bandpass filter (FL3) and a 525nm bandpass filter (FL1) for FITC-anti-phospho-Histone H2A.X. […]
(§5) Graphical representation and statistical analysis was performed in GraphPad Prism 7 (GraphPad, La Jolla, USA). […]

For experiment [3], the system named is PEO4 cells. The experiment in a line: γH2AX analysis, PEO4. Conditions: FEN1i plus cisplatin. As for the experimental part:
as §2, §3, §1, §4, §5

For experiment [4], the system named is POLβ KO A2780cis cells. The experiment in a line: Cell cycle progression, POLβ KO A2780cis. Conditions: FEN1i-treated. As for the experimental part: as §1, §4
Graphical representation and statistical analysis was performed in GraphPad Prism 7 (GraphPad, La Jolla, USA).
3D Spheroid assays: A2780_control and A2780 FEN1_ KO as well as A2780cis_control and A2780cis FEN1_ KO cells were seeded at 4500 cells/cm2 density in ultra-low attachment 6-well plates (174932, Thermo Fisher Scientific) and cultured in 3D Tumorsphere Medium (C28070, PromoCell, UK) at 37°C in a 5% CO2 atmosphere. Cells were keep in culture for 7-10 days, toping up with fresh medium every two days until spheroids structures were formed.

Molecules are shown by their SMILES.

Regarding `Cc1csc2c1c(=O)n(O)c(=O)n2-c1ccccc1` [PTPD, 3-hydroxy-5-methyl-1-phenylthieno [2,3 d]pyrimidine-2,4(1H,3H)-dione], the “cell death in 3D spheroids” value in experiment [1] is on record as “increased cell death”. The γH2AX nuclear foci result in experiment [2] is listed as “induced nuclear γH2AX nuclear foci accumulation”; in experiment [3], “increased nuclear γH2AX nuclear foci accumulation”. Besides, the cell cycle effect entry in experiment [4] was “G2/M cell cycle arrest”.
